{"source": "paper PMC9942557", "about": "“Bolaamphiphile Analogues of 12-bis-THA Cl2 Are Potent Antimicrobial Therapeutics with Distinct Mechanisms of Action against Bacterial, Mycobacterial, and Fungal Pathogens” (mSphere, 2022)", "key": {"[1]": {"system": "Klebsiella pneumoniae NCTC 13368", "assay": "Broth microdilution MIC", "type": "cell-based"}, "[2]": {"system": "Klebsiella pneumoniae M6", "assay": "Broth microdilution MIC", "type": "cell-based"}, "[3]": {"system": "Acinetobacter baumannii AYE", "assay": "Broth microdilution MIC", "type": "cell-based", "details": "Acinetobacter baumannii AYE"}, "[4]": {"system": "Acinetobacter baumannii ATCC 17978", "assay": "Broth microdilution MIC", "type": "cell-based"}, "[5]": {"system": "Pseudomonas aeruginosa PAO1", "assay": "Broth microdilution MIC", "type": "cell-based"}, "[6]": {"system": "Pseudomonas aeruginosa NCTC 13437", "assay": "Broth microdilution MIC", "type": "cell-based"}, "[7]": {"system": "Escherichia coli NCTC 12923", "assay": "Broth microdilution MIC", "type": "cell-based"}, "[8]": {"system": "EMR Staphylococcus aureus 15 NCTC 13616", "assay": "Broth microdilution MIC", "type": "cell-based", "details": "EMR Staphylococcus aureus 15 NCTC 13616"}, "[9]": {"system": "EMR Staphylococcus aureus 16 NCTC 13277", "assay": "Broth microdilution MIC", "type": "cell-based", "details": "EMR Staphylococcus aureus 16 NCTC 13277"}, "[10]": {"system": "VS Enterococcus faecalis NCTC 775", "assay": "Broth microdilution MIC", "type": "cell-based"}, "[11]": {"system": "VR Enterococcus faecalis NCTC 12201", "assay": "Broth microdilution MIC", "type": "cell-based", "details": "VR Enterococcus faecalis NCTC 12201"}, "[12]": {"system": "VR Enterococcus faecium NCTC 12204", "assay": "Broth microdilution MIC", "type": "cell-based", "details": "VR Enterococcus faecium NCTC 12204"}, "[13]": {"system": "C. albicans 3179", "assay": "Broth microdilution MIC", "type": "cell-based, Candida albicans", "details": "C. albicans 3179"}, "[14]": {"system": "C. albicans 3281", "assay": "Broth microdilution MIC", "type": "cell-based, Candida albicans", "details": "C. albicans 3281"}, "[15]": {"system": "C. auris temp probe", "assay": "Broth microdilution MIC", "type": "cell-based, Candida auris", "details": "C. auris temp probe"}, "[16]": {"system": "C. glabrata 8018", "assay": "Broth microdilution MIC", "type": "cell-based", "details": "C. glabrata 8018"}, "[17]": {"system": "C. tropicalis 8760", "assay": "Broth microdilution MIC", "type": "cell-based", "details": "C. tropicalis 8760"}, "[18]": {"system": "C. krusei 3876", "assay": "Broth microdilution MIC", "type": "cell-based"}, "[19]": {"system": "C. parapsilosis 3209", "assay": "Broth microdilution MIC", "type": "cell-based"}, "[20]": {"system": "C. parapsilosis", "assay": "Broth microdilution MIC", "type": "cell-based"}, "[21]": {"system": "M. smegmatis mc^2 155", "assay": "Broth microdilution MIC (Middlebrook 7H9)", "type": "cell-based, Mycobacterium smegmatis"}, "[22]": {"system": "M. tuberculosis Bleupan", "assay": "microbe, parasite or virus in culture", "type": "cell-based, Mycobacterium tuberculosis"}, "[23]": {"system": "HEK293", "assay": "In vitro toxicity for cell line", "type": "cell-based, human", "details": "HEK293; average ± standard error from 3 independent repeats", "text": "(§1) TABLE 2 Toxicity of bolaamphiphiles for two cell lines^a | column: Toxicity (EC50 [μg/ml]) of: / 12-bis-THA Cl2; Toxicity (EC50 [μg/ml]) of: / Dequalinium; Toxicity (EC50 [μg/ml]) of: / Quino-bola; Toxicity (EC50 [μg/ml]) of: / Penta-bola; Toxicity (EC50 [μg/ml]) of: / Hepta-bola; Toxicity (EC50 [μg/ml]) of: / Octa-bola; Toxicity (EC50 [μg/ml]) of: / Octa-C10; Toxicity (EC50 [μg/ml]) of: / Octa-C8; Toxicity (EC50 [μg/ml]) of: / Octa-C6"}, "[24]": {"system": "HeLa", "assay": "In vitro toxicity for cell line", "type": "cell-based, human", "details": "average ± standard error from 3 independent repeats", "text": "as §1"}, "[25]": {"system": "P. aeruginosa RP73", "assay": "Checkerboard synergy assay", "type": "cell-based, Pseudomonas aeruginosa"}, "[26]": {"system": "M. tuberculosis Bleupan", "type": "in vivo, Galleria mellonella"}, "[27]": {"assay": "Dynamic light scattering", "type": "physicochemical", "method": "Stock solutions of bolalipids were prepared by dispersing the powder in ultrapure water, then stirring vigorously by vortexing, and sonicating in a 40°C bath sonicator for 20 min. The concentration of each stock solution corresponds to the highest solubility achieved in water for each bolalipid, using the method described above. DLS experiments were performed on a Malvern Zetasizer Nano (Malvern Instruments, Worcestershire, UK) in back-scattering mode at 20°C. There were three independent measurements of each sample and 12 runs for each measurement, with 10 s taken for each run. The attenuator index and measurement position were automatically adjusted. Fifty microliters of each sample was transferred into polystyrene semi-microcuvettes for determination of UV and visible wavelengths (Sarstedt)."}}}
{"smiles": "Nc1c2c([n+](CCCCCC[n+]3c4c(c(N)c5ccccc53)CCCCCC4)c3ccccc13)CCCCCC2", "note": "[Octa-C6]", "values": [{"measurement": "MIC", "setting": "[1]", "result": ">32", "unit": "µg/mL"}, {"measurement": "MIC", "setting": "[2]", "result": ">32", "unit": "µg/mL"}, {"measurement": "MIC", "setting": "[3]", "result": ">32", "unit": "µg/mL"}, {"measurement": "MIC", "setting": "[4]", "result": ">32", "unit": "µg/mL"}, {"measurement": "MIC", "setting": "[5]", "result": ">32", "unit": "µg/mL"}, {"measurement": "MIC", "setting": "[6]", "result": ">32", "unit": "µg/mL"}, {"measurement": "MIC", "setting": "[7]", "result": ">32", "unit": "µg/mL"}, {"measurement": "MIC", "setting": "[8]", "result": 16, "unit": "µg/mL"}, {"measurement": "MIC", "setting": "[9]", "result": 16, "unit": "µg/mL"}, {"measurement": "MIC", "setting": "[10]", "result": 32, "unit": "µg/mL"}, {"measurement": "MIC", "setting": "[11]", "result": 16, "unit": "µg/mL"}, {"measurement": "MIC", "setting": "[12]", "result": 16, "unit": "µg/mL"}, {"measurement": "MIC", "setting": "[13]", "result": 8, "unit": "µg/mL"}, {"measurement": "MIC", "setting": "[14]", "result": 8, "unit": "µg/mL"}, {"measurement": "MIC", "setting": "[15]", "result": ">8", "unit": "µg/mL"}, {"measurement": "MIC", "setting": "[16]", "result": ">8", "unit": "µg/mL"}, {"measurement": "MIC", "setting": "[17]", "result": 8, "unit": "µg/mL"}, {"measurement": "MIC", "setting": "[18]", "result": ">8", "unit": "µg/mL"}, {"measurement": "MIC", "setting": "[19]", "result": ">8", "unit": "µg/mL"}, {"measurement": "MIC", "setting": "[20]", "result": ">8", "unit": "µg/mL"}, {"measurement": "MIC", "setting": "[21]", "result": 1.66, "unit": "µg/mL"}, {"measurement": "MIC", "setting": "[22]", "result": 0.46, "unit": "µg/mL"}, {"measurement": "Toxicity (EC50)", "setting": "[23]", "result": "40.0 ± 15.6", "unit": "µg/mL"}, {"measurement": "Toxicity (EC50)", "setting": "[24]", "result": "64.3 ± 3.6", "unit": "µg/mL"}, {"measurement": "MIC alone Bolalipid", "setting": "[25]", "result": 64, "unit": "µg/mL"}, {"measurement": "protection", "setting": "[26]; all doses tested", "result": "did not provide protection"}, {"measurement": "survival", "setting": "[26]; three lower doses (0.01, 0.1, and 1 mg/kg)", "result": "survival was significantly worse"}, {"measurement": "nanoparticle formation (DLS)", "setting": "[27]; any conditions", "result": "Under no conditions did Octa-C6 give evidence of nanoparticle formation"}, {"measurement": "derived count rate", "setting": "[27]; concentrations up to 1.65 mM", "result": "≤ 26.3", "unit": "kcps"}]}
